Experimental data from patent US12195557B2, “Optimised compounds” (AXELIA ONCOLOGY PTY LTD, priority 2017, dated 2025).
pEC50: −log10 of the molar value. Where “and” joins values, the source holds several entries; their conditions need not be identical. Identical values can stand only once. Entries after “also recorded” stand apart in the source; their conditions may differ. Like-named read-outs stand apart in the source and are kept apart here.

Tests used:
[1] = test system: other TLR pattern recognition receptors (hTLR3, hTLR4, hTLR5, hTLR7, hTLR8, hTLR9); assay: TLR panel, NF-κB inducible SEAP reporter in HEK293 cells: other TLRs; assay type: cell-based, human and mouse
Experimental: INNA-006 was assessed for its ability to activate a range of other TLR pattern recognition receptors. These assessments were conducted using both human and mouse TLR panels. These assays detect a secreted embryonic alkaline phosphatase (SEAP) reporter under the control of a promoter which is inducible by NF-κB activation in HEK293 cells. The secreted embryonic alkaline phosphatase (SEAP) reporter is under the control of a promoter inducible by the transcription factor NF-κB. This reporter gene allows the monitoring of signaling through the TLR, based on the activation of NF-κB. In a 96-well plate (200 μL total volume) containing the appropriate cells (50,000-75,000 cells/well), 20 μL of the test article or the positive control ligand is added to the wells. The media added to the wells is designed for the detection of NF-κB induced SEAP expression. After a 16-24 hr incubation the optical density (OD) is read at 650 nm on a Molecular Devices SpectraMax 340PC absorbance detector. • hTLR2: HKLM (heat-killed Listeria monocytogenes) at 1×10^8 cells/mL • hTLR3: Poly(I:C) HMW at 1 μg/mL • hTLR4: E. coli K12 LPS at 100 ng/mL • hTLR5: S. typhimurium flagellin at 100 ng/mL • hTLR7: CL307 at 1 μg/mL • hTLR8: CL075 at 1 μg/mL • hTLR9: CpG ODN2006 at 1 μg/mL.

in vitro [2] = details: rat, rat plasma
in vitro [3] = details: cynomolgus monkey, hepatocytes
human TLR2 = target: T1, human TLR2 (Homo sapiens, UniProt O60603); assay: NF-kB activation in HEKBlue-hTLR2 cell line (SEAP reporter); assay type: cell-based
T1 construct: host or cells: HEK-Blue hTLR2 (HEK293-derived) cell line
Experimental: The potency of the compounds as activators of human and mouse TLR-2s was tested in an in vitro assay. The assay assesses NF-kB activation in the HEKBlue-mTLR-2 cell line. These cells have been stably transfected with mouse TLR-2 and express TLR-1 and TLR-6 endogenously at sufficient levels to allow for fully-functional TLR-1/2 and TLR-2/6 activation.
(§1) Toll-Like Receptor 2 (TLR2) stimulation is tested by assessing NF-kB activation in the HEKBlue-hTLR2 cell line. These cells have been stably transfected with human TLR2 and express TLR1 and TLR6 endogenously at a level sufficient to allow for fully-functional TLR1/2 and TLR2/6 activation. The activity of the test articles are tested on human TLR2 as potential agonists. The test articles are evaluated at seven concentrations and compared to control ligands. These steps are performed in triplicate.
as §1, with “stimulation was” for “stimulation is”, “assessing N-kB” for “assessing NF-kB”, “the HEK-Blue hTLR2” for “the HEKBlue-hTLR2”, “articles were” for “articles are”, “control ligands (see list below).” for “control ligands.”, “steps were” for “steps are”
The secreted embryonic alkaline phosphatase (SEAP) reporter is under the control of a promoter inducible by the transcription factor NF-κB. This reporter gene allows the monitoring of signaling through the TLR, based on the activation of NF-κB. In a 96-well plate (200 μL total volume) containing the appropriate cells (50,000-75,000 cells/well), 20 μL of the test article or the positive control ligand is added to the wells. The media added to the wells is designed for the detection of NF-κB induced SEAP expression. After a 20 hour incubation the optical density (OD) is read at 650 nm on a Molecular Devices SpectraMax 340PC absorbance detector.

in vitro [4] = details: human, hepatocytes
[5] = test system: A/Udorn/307/72 (H3N2) influenza virus; assay type: in vivo, C57BL/6 mice
[6] = test system: cytokines/chemokines (IL-6, KC, MCP-1, RANTES); assay: Cytokine/chemokine levels in nasal turbinates, trachea, lungs and sera (cytometric bead array); assay type: in vivo, C57BL/6 mice
[7] = Size exclusion chromatography and LC-MS analysis of micelle aggregates; assay type: physicochemical; details: INNA-006 at 0.3 mg/ml in PBS; INNA-011 at 0.4 mg/ml in saline
Experimental: INNA-011 and INNA-006 form micelle-type aggregates in both aqueous and organic solutions. The size distribution and polydispersity of particles of INNA-006 and INNA-011 were determined by dynamic light scattering (DLS) and size exclusion chromatography (University of Melbourne). […] This corresponds to the assembly in a micelle formation of about 266 individual INNA-006 molecules. Using size exclusion chromatography and LC-MS analysis, it was determined that INNA-011 at 0.4 mg/ml is present in saline solution as a single uniform species with a Stoke's radius of ˜7.3 nm and a molecular weight of ˜566,000. This corresponds to the assembly in a micelle formation of about 267 individual INNA-011 molecules.

[8] = 3-dose regime, 0.5 and 0.05 nmole doses

T1 sequence (O60603 21-784): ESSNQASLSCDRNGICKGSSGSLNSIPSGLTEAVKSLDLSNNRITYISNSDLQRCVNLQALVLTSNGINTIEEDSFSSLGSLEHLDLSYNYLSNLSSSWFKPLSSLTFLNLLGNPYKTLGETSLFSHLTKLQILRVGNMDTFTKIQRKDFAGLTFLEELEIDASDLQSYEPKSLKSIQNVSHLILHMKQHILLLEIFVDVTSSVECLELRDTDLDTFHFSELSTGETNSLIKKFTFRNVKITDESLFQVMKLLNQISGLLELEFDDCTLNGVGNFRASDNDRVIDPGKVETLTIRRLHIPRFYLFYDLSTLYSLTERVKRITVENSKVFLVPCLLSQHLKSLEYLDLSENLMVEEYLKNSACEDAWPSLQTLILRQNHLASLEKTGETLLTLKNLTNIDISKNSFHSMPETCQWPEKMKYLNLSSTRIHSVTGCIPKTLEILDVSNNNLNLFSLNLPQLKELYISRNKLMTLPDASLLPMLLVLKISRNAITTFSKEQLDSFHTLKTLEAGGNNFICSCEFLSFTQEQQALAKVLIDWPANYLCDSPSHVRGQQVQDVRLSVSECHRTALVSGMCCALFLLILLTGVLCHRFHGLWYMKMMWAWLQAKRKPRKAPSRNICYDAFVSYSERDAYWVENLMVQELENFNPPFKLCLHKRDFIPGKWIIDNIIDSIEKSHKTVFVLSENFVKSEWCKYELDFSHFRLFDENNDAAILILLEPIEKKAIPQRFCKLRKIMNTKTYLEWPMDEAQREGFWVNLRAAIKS
T1 sequence (Q9Y2C9 32-796 partner): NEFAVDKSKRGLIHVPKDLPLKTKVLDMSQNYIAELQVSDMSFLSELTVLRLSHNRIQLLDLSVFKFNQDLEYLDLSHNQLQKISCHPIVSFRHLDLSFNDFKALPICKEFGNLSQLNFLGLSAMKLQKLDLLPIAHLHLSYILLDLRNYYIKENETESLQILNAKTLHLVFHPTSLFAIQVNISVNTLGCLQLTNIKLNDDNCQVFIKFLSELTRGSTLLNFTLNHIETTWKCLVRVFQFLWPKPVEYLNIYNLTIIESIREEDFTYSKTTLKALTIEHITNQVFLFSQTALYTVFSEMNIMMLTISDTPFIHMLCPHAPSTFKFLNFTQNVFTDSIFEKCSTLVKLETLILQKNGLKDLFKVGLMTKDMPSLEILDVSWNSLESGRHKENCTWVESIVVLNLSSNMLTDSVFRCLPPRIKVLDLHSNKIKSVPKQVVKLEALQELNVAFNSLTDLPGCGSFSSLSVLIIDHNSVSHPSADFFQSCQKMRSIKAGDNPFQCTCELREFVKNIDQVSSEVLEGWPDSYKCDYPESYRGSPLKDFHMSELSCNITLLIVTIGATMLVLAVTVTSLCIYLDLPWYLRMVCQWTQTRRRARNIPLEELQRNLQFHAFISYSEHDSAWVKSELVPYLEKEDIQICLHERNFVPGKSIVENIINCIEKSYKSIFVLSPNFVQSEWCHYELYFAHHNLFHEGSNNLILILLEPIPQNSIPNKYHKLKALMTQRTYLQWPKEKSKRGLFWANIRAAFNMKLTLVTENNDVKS

With `CCC(=O)OCC(CSCC(N)C(=O)NC(CO)C(=O)NCCOCC(=O)NCC(N)=O)OC(=O)CC` (stereo not drawn) [INNA-006, Pam2Cys-Ser-PEG] the “activation of any other TLR tested” value [1] was “no activation”, the half-life (in vitro [2]) was 5.7 h and the half-life at 0.5 μM (in vitro [3]) was over 6.25 h. The hepatocyte CLint at 0.5 μM (in vitro [3]) was under 2 µL/min/1e6 cells, the “TLR2 activation, potency in words” value (human TLR2; Example 2) was “significantly more potent than INNA-003” and the pEC50 (human TLR2; agonist activity against Human TLR-2 in vitro) was 11.11. The half-life at 0.5 μM (in vitro [4]) was over 6.25 h, the hepatocyte CLint at 0.5 μM (in vitro [4]) was under 2 µL/min/1e6 cells and the “progression of influenza virus to the lungs (lung viral titre)” value (“progression of influenza virus” below) ([5]; 0.005 nmoles intranasal 1 day prior to 500 pfu Udorn challenge, n=5, day 5 (Example 4)) was “partial inhibition”. For the same molecule, the “progression of influenza virus” value ([5]; 0.05 nmoles intranasal 1 day prior to challenge, n=10 (Example 5)) was “partial inhibition”, the “progression of influenza virus” value ([5]; 0.1 nmoles intranasal 1 day prior to 500 pfu Udorn challenge, n=5, day 5 (Example 4)) was “significantly inhibited” and the “progression of influenza virus” value ([5]; 0.5 nmoles intranasal 1 day prior to challenge, n=10 (Example 5)) was “significantly inhibited”. The “progression of influenza virus” value ([5]; 5 nmoles intranasal 1 day prior to 500 pfu Udorn challenge, n=5, day 5 (Example 4)) was “significantly inhibited”, the “progression of influenza virus” value ([5]; 5 nmoles intranasal 1 day prior to challenge, n=10 (Example 5)) was “significantly inhibited” and the “times more effective than INNA-003 at inhibiting viral progression” value ([5]; 3 doses of 0.5 nmoles (Example 7, FIG. 10)) was 10-100 times. For the same molecule, the “progression of influenza virus” value ([5]; 3 doses of 0.5 nmoles (days 0, 2, 4), challenge one day after third dose (Example 7)) was “major reduction in viral load in the lungs; also recorded: significant reduction in dissemination of virus to lungs; also recorded: significantly inhibited”, the “times more effective than INNA-003 or Pam2Cys-SK4 at inhibiting viral progression” value ([5]; single dose 1 day prior to challenge (Example 4)) was 10-100 times and the “fold lower IL-6 in nasal turbinates, 3 doses compared to single dose” value ([6]; 0.5 nmoles) was “approximately 25 fold”. For the same molecule, the “cytokine/chemokine levels in nasal turbinates, lungs and sera, 3 repeat doses compared to single dose” value ([6]; 0.5 or 0.05 nmoles) was “marked decrease in cytokine/chemokine levels”, the “level of KC in lungs” value ([6]; 3-dose regime (both 0.5 and 0.05 nmole doses)) was ~14 pg/mL and ~16.3 pg/mL and the “fold increase of KC secretion in lungs compared to INNA-003” value [6, 8] was 2 fold. For the same molecule, the “fold increase of KC secretion in lungs compared to saline control” value [6, 8] was 3 fold, the “level of IL-6 in nasal turbinates” value ([6]; 3 doses (0.5 nmoles), 24 hours after last dose) was 15 pg/mL and the “fold increase of KC in nasal turbinates versus saline” value ([6]; mouse, in vivo) was 2 fold. The “level of KC in nasal turbinates” value ([6]; mouse, in vivo) was about 83 pg/mL, the “inflammatory cytokines after pre-treatment and Udorn challenge” value ([6]; pre-treatment with up to three doses followed by challenge) was “no detectable change in any of the inflammatory cytokines measured” and the “KC in the lungs compared to saline control” value ([6]; single dose) was “no significance”. For the same molecule, the “RANTES in nasal turbinates compared to INNA-003” value ([6]; single dose 0.5 nmoles) was “increased RANTES secretion”, the “fold increase in IL-6 levels in nasal turbinates versus saline” value ([6]; single dose 0.5 nmoles) was 98 fold and the “level of IL-6 in nasal turbinates” value ([6]; single dose (0.5 nmoles), 24 hours after dose) was about 395 pg/mL. The “cytokine/chemokine profile in nasal turbinates compared to saline (IL-6, KC & MCP-1)” value ([6]; single or 3 repeat doses, 0.5 or 0.05 nmoles, dose-dependent) was “increase in proinflammatory cytokines and chemokines”, the Stokes radius [7] was about 6.3 nm and the “individual molecules assembled in a micelle formation” value [7] was “about 266 molecules”. For the same molecule, the “molecular weight of micelle species” value [7] was ~377,000.
